# Experiments:
# Sec14^V155F = target: T1, Sec14^V155F (Saccharomyces cerevisiae, UniProt P24280, V155F); assay: [3H]-PtdIns-transfer assay, […] PITP, […] himbacine, […] inhibition; format: biochemical; conditions: read-out: % inhibition at 20 μM
# T1 sequence (P24280 2-304 V155F): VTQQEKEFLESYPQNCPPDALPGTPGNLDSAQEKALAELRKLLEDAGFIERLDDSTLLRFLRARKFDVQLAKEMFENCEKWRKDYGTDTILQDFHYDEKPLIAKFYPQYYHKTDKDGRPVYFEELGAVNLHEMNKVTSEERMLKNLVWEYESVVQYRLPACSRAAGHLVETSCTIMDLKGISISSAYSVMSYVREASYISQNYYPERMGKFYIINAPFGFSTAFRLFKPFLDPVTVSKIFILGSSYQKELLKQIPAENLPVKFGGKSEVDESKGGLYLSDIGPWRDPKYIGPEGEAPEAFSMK
# Sec14^V154F = target: T2, Sec14^V154F (Saccharomyces cerevisiae, UniProt P24280, V154F); assay: as above; format: biochemical; conditions: read-out: % inhibition at 20 μM
# T2 sequence (P24280 2-304 V154F): T1 sequence (P24280 2-304 V155F)
smiles,measurement,setting,value
C[C@@H]1OC(=O)[C@H]2C[C@H]3CCCC[C@@H]3[C@@H](/C=C/[C@H]3CCC[C@H](C)N3C)[C@@H]12 [himbacine],inhibition at 20 µM,Sec14^V155F,73 ± 2.1%
same,inhibition at 20 µM,Sec14^V154F,71 ± 1.2%
